Tested on: patients with Type 2 diabetes
Assay: Clinical efficacy indexes before and after 3 months of Acarbose treatment in naïve patients with Type 2 diabetes, by enterotype
Format: in vivo, human
Settings: Bacterioide enterotype, After treatment
Method: For naïve patients with Type 2 diabetes, their liver and kidney functions, blood glucose and lipid levels, intestinal hormones, inflammatory factors, and cardiovascular risk-related factors are evaluated before medication. Their stool, urine, and blood samples are retained. […] The patients' blood glucose levels are followed up every month within 3 months, and the medication is adjusted according to the blood glucose level. Three months later, the pre-medication assessment is repeated, and the urine, stool and blood samples are retained.
a) A randomized, opened, positive control method is adopted to collect the naïve patients with Type 2 diabetes and normal controls of their spouses. […] The newly diagnosed patients of Type 2 diabetes without medication receive routine examinations, including the retention of stool and blood samples.
i. Draw venous blood 15 ml under fasting condition, of which, 1.5 ml is used for detection of plasma glucose, 6.5 ml is added to ordinary tubes (including aprotinin, DPPV inhibitor), and 6.5 ml is added to anticoagulant tubes (including heparin and RNA later)
ii. Centrifuge the blood in ordinary tube at 4° C., when serum is separated out, draw about 3 ml, and divide to three 1.5 ml Eppendorf on average, then tighten the tube caps;
iii. Centrifuge the anticoagulation blood immediately at 4° C., to separate out about 3 ml of plasma, then divide to three 1.5 ml imported RNAase free Eppendorf tubes on average, […]

C[C@H]1O[C@H](O[C@H]2[C@H](O)[C@@H](O)[C@@H](O[C@H]3[C@H](O)[C@@H](O)C(O)O[C@@H]3CO)O[C@@H]2CO)[C@H](O)[C@@H](O)[C@@H]1N[C@H]1C=C(CO)[C@@H](O)[C@H](O)[C@H]1O (stereo partly shown) [Acarbose]
AKP Mean: 59.23 | ALB Mean: 42.26 | ALT Mean: 29.43 | APOA Mean: 1.2475 | APOB Mean: 0.9636 | AST Mean: 22.46 | Adipisin Mean: 3174901.441 | Adpn Mean: 5157339.824 | BMI Mean: 25.51 | BW Mean: 71.91 | CP0 Mean: 2.216 | CP30 Mean: 2.7525 | CP60 Mean: 3.71 | CP120 Mean: 5.204 | CP180 Mean: 4.843 | DBIL Mean: 2.966 | DBP Mean: 75.37 | ENDOM Mean: 13.44 | Endothelin Mean: 4.159 | FABP3 Mean: 2351 | FABP4 Mean: 11504.54286 | FGF1M Mean: 22.57 | FGF2M Mean: 12.69 | FGF19M Mean: 19.74 | FGF23M Mean: 37.07 | G30 Mean: 7.623 | G60 Mean: 9.074 | G120 Mean: 9.171 | G180 Mean: 7.941 | GIP0 Mean: 80.26 | GIP30 Mean: 219.1 | GIP60 Mean: 258.945 | GIP120 Mean: 264 | GIP180 Mean: 201.6 | GMCSFM Mean: 64.62 | GO Mean: 6.607 | HB Mean: 140.6 | HBA1C Mean: 6.425 | HDL Mean: 2.989 | HGF Mean: 434.2 | HIP Mean: 98.83 | HOMA.IR Mean: 2.487 | IFNr1 Mean: 42.1 | IL1B Mean: 0.5324 | IL1bM Mean: 14.66 | IL2M Mean: 53.46 | IL4M Mean: 30.73 | IL5M Mean: 38.44 | IL6M Mean: 55.85 | IL6 Mean: 4.846 | IL8 Mean: 11.92 | IL9M Mean: 84.63 | IL10 Mean: 2.301 | IL12 Mean: 10.12 | IL13 Mean: 311.7 | IL15M Mean: 333.3 | IL17AM Mean: 33.74 | IL17EM Mean: 22.24 | IL17FM Mean: 181.4 | IL21 Mean: 29.13 | IL22M Mean: 42.5 | IL23M Mean: 39.35 | IL27 Mean: 61.28 | IL28a Mean: 20.04 | IL31M Mean: 113 | IL33M Mean: 42.13 | INS0 Mean: 8.284 | INS30 Mean: 14.5 | INS60 Mean: 23.7 | INS120 Mean: 30.33 | INS180 Mean: 22.83 | K Mean: 7.893 | LBP Mean: 17.36 | LDL Mean: 1.242 | LEPTIN Mean: 6481 | LPA Mean: 32.841 | Lymph Mean: 28.87 | MCP1 Mean: 256.6 | MIP3A Mean: 43.77 | NEU Mean: 58.47 | NGAL Mean: 125535.0294 | NGF Mean: 1.865 | Na Mean: 136.9 | PAI1 Mean: 52769.94118 | PDGFAA Mean: 4702 | PDGFAABB Mean: 24130.63636 | PP0 Mean: 80.32 | PP30 Mean: 331.7 | PP60 Mean: 330.8 | PP120 Mean: 258.8 | PP180 Mean: 174 | RANTES Mean: 50811.91176 | RBC Mean: 4.832 | RCv Mean: 2.58 | SBP Mean: 120.9 | TBIL Mean: 16.36 | TC Mean: 4.736 | TG Mean: 1.525 | TNFBM Mean: 38.44 | TNFa Mean: 4.773 | TPRO Mean: 70.11 | Trophonin M Mean: 16.15 | WAIST Mean: 88.45 | WBC Mean: 6.913 | WHR Mean: 0.8956 | bun Mean: 329.2 | creatine Mean: 67.61 | crp Mean: 29.96 | egf Mean: 183.4 | fetuinA Mean: 400.9 | fgf1 Mean: 11.66 | fgf2 Mean: 35.4 | fgf21M Mean: 100.1 | fgf21 Mean: 0.37 | monocyte Mean: 5.481 | mpo Mean: 275.8 | oscatinM Mean: 86.94 | pCP0 Mean: 1099 | pCP30 Mean: 1394 | pCP60 Mean: 1891 | pCP120 Mean: 2787 | pCP180 Mean: 2452 | pGLP10 Mean: 4.564 | pGLP130 Mean: 12.21 | pGLP160 Mean: 13.2 | pGLP1120 Mean: 10.47 | pGLP1180 Mean: 7.518 | pHOMA.IR Mean: 2.565 | pgh0 Mean: 55.75 | pgh30 Mean: 70.15 | pgh60 Mean: 66.51 | pgh120 Mean: 58.56 | pgh0180 Mean: 60.3 | pgluc0 Mean: 37.3 | pgluc30 Mean: 43.28 | pgluc60 Mean: 43.96 | pgluc120 Mean: 35.95 | pgluc180 Mean: 32.29 | pins0 Mean: 391 | pins30 Mean: 561.8 | pins60 Mean: 892.8875 | pins120 Mean: 1169 | pins180 Mean: 916.7 | platelet Mean: 214 | ppyy0 Mean: 49.602 | ppyy30 Mean: 55.74 | ppyy60 Mean: 59.37 | ppyy120 Mean: 54.45 | ppyy180 Mean: 56.15 | rGT Mean: 24.82 | resistin Mean: 14639.64706 | sicam1 Mean: 112.3 | svcam1 Mean: 484.8 | urea Mean: 4.731 | vegfa Mean: 475.2 | vegfc Mean: 106.3 | vegfd Mean: 145.4
